Converted amounts (≈) assume the structure as drawn. “And” between values parts separate entries of the source, which are not always exact repeats. Identical values can stand only once. Like-named read-outs stand apart in the source and are kept apart here.
What was measured:
[1] = system: S. aureus LAC MRSA (Sa LAC); experiment: MIC, broth microdilution, Sa LAC; assay type: cell-based; details: Staphylococcus aureus, Table 1, HT series, read-out: Minimum inhibitory concentration (MIC) Sa LAC
Procedure: (§1) The broth microdilution method was utilized to determine MIC values of novel thiazole derivatives against different clinically important Gram-positive bacteria according to the guidelines outlined by the Clinical and Laboratory Standards Institute (CLSI) as reported in our recent papers.^1-5 The starting concentration of compounds for MIC determination was 64 μg/mL serially diluted down the wells and the MIC values were recorded in duplicates in three independent experiments on different days.

[2] = system: S. aureus ATCC BAA-2312 (Sa 12); experiment: MIC, broth microdilution, Sa 12; assay type: cell-based; details: Staphylococcus aureus, ATCCBAA2312, read-out: Minimum inhibitory concentration (MIC) Sa 12
Procedure: as §1

[3] = system: E. faecalis ATCC 29212 (Efs 12); experiment: MIC, broth microdilution, Efs 12; assay type: cell-based; details: for MIC: Enterococcus faecalis, read-out: Minimum inhibitory concentration (MIC) Efs 12; for Minimum inhibitory concentration (MIC) Efs 12: Table 1, HT series
Procedure: as §1

[4] = system: S. aureus ATCC 33592 (Sa 92); experiment: MIC, broth microdilution, Sa 92; assay type: cell-based; details: Staphylococcus aureus, ATCC33592, read-out: Minimum inhibitory concentration (MIC) Sa 92
Procedure: as §1

[5] = system: S. aureus subsp. aureus Rosenbach ATCC 25904 (SA Newman); experiment: MIC, broth microdilution, SA Newman; assay type: cell-based; details: Staphylococcus aureus, read-out: Minimum inhibitory concentration (MIC) Sa Newman
Procedure: as §1

[6] = system: Sa UAMS-1 MRSA ATCC 49230 (Sa UAMS); experiment: MIC, broth microdilution, Sa UAMS; assay type: cell-based, S. aureus; details: Staphylococcus aureus
Procedure: as §1

[7] = system: S. aureus ATCC 700699 (Sa 99); experiment: MIC, broth microdilution, Sa 99; assay type: cell-based; details: for MIC: Staphylococcus aureus, read-out: Minimum inhibitory concentration (MIC) Sa 99; for Minimum inhibitory concentration (MIC) Sa 99: Table 1, HT series
Procedure: as §1

[8] = system: S. aureus ATCC 25923 (Sa 23); experiment: MIC, broth microdilution, Sa 23; assay type: cell-based; details: for MIC: Staphylococcus aureus, read-out: Minimum inhibitory concentration (MIC) Sa 23; for Minimum inhibitory concentration (MIC) Sa 23: Table 1, HT series
Procedure: as §1

[9] = system: S. aureus ATCC 33591 (Sa 91); experiment: MIC, broth microdilution, Sa 91; assay type: cell-based; details: Staphylococcus aureus, ATCC33591, read-out: Minimum inhibitory concentration (MIC) Sa 91
Procedure: as §1

[10] = system: E. faecium ATCC 700221 (Efm 21); experiment: MIC, broth microdilution, Efm 21; assay type: cell-based; details: Enterococcus faecium, ATCC700221, Table 2, HTM series; read-out: Minimum inhibitory concentration (MIC) Efm 21
Procedure: as §1

[11] = system: S. aureus subsp. aureus Rosenbach BAA-1717 (Sa USA 300); experiment: MIC, broth microdilution, Sa USA 300; assay type: cell-based; details: Staphylococcus aureus; Table 2, HTM series; read-out: Minimum inhibitory concentration (MIC) Sa USA 300
Procedure: as §1

[12] = system: S. epidermidis ATCC 700296 (Se); experiment: MIC, broth microdilution, Se; assay type: cell-based; details: Staphylococcus epidermidis, ATCC700296; Table 2, HTM series; read-out: Minimum inhibitory concentration (MIC) Se
Procedure: as §1

[13] = system: E. faecalis ATCC 51299 (Efs 99); experiment: MIC, broth microdilution, Efs 99; assay type: cell-based; details: Enterococcus faecalis, ATCC51299; Table 2, HTM series; read-out: Minimum inhibitory concentration (MIC) Efs 99
Procedure: as §1

[14] = ATCC29212, Table 1, HT series, replicates from different days separated by comma
[15] = replicates from different days separated by comma
[16] = Table 1, HT series, read-out: Minimum inhibitory concentration (MIC) Sa UAMS
[17] = ATCC700699, Table 1, HT series, replicates from different days separated by comma
[18] = ATCC25923, Table 1, HT series, replicates from different days separated by comma
[19] = Table 2, HTM series, read-out: Minimum inhibitory concentration (MIC) Sa UAMS-1
[20] = ATCC700699, Table 2, HTM series

MIC [1] [µg/mL]	MIC ([2]; Table 1, HT series) [µg/mL]	MIC [3, 14] [µg/mL]	Minimum inhibitory concentration (MIC) Efs 12 [3, 15]	MIC ([4]; Table 1, HT series) [µg/mL]	MIC ([5]; Table 1, HT series) [µg/mL]	MIC [6, 16] [µg/mL]	MIC [7, 17] [µg/mL]	Minimum inhibitory concentration (MIC) Sa 99 [7, 15]	MIC [8, 18] [µg/mL]	Minimum inhibitory concentration (MIC) Sa 23 [8, 15]	MIC ([9]; Table 1, HT series) [µg/mL]	MIC ([2]; Table 2, HTM series) [µg/mL]	MIC ([3]; ATCC29212, Table 2, HTM series) [µg/mL]	MIC ([4]; Table 2, HTM series) [µg/mL]	MIC ([5]; Table 2, HTM series) [µg/mL]	MIC [6, 19] [µg/mL]	MIC [10] [µg/mL]	MIC [7, 20] [µg/mL]	MIC ([8]; ATCC25923, Table 2, HTM series) [µg/mL]	Compound	further results
16 (≈ 56.1 µM)	16 (≈ 56.1 µM)	> 32	>32, >32, >32 μg/mL	32 (≈ 112 µM)	16 (≈ 56.1 µM)	32 (≈ 112 µM)	16 (≈ 56.1 µM)	8 µg/mL (≈ 28 µM)	16 (≈ 56.1 µM)	16, 16, 16 μg/mL	32 (≈ 112 µM)	–	–	–	–	–	–	–	–	Oc1ccc(-c2csc(-c3ccc(O)c(O)c3)n2)cc1 [Compound 8, 4-(4-(4-hydroxyphenyl)thiazol-2-yl)benzene-1,2-diol]	–
8 (≈ 23.7 µM)	8 (≈ 23.7 µM)	–	16 µg/mL and 2 µg/mL and 8 µg/mL	8 (≈ 23.7 µM)	4 (≈ 11.8 µM)	8 (≈ 23.7 µM)	2 (≈ 5.91 µM)	2, 2, 2 μg/mL	2 (≈ 5.91 µM)	2, 2, 2 μg/mL	4 (≈ 11.8 µM)	–	–	–	–	–	–	–	–	Oc1ccc(-c2nc(-c3ccc(Cl)cc3Cl)cs2)cc1O [Compound 6, 4-(4-(2,4-dichlorophenyl)thiazol-2-yl)benzene-1,2-diol]	–
4 (≈ 12.5 µM)	8 (≈ 25 µM)	16 (≈ 50.1 µM)	16, 16, 16 μg/mL	8 (≈ 25 µM)	8 (≈ 25 µM)	8 (≈ 25 µM)	2 (≈ 6.26 µM)	2, 2, 2 μg/mL	2 (≈ 6.26 µM)	2, 2, 2 μg/mL	8 (≈ 25 µM)	–	–	–	–	–	–	–	–	Oc1ccc(-c2nc(-c3ccc4ccccc4c3)cs2)cc1O [Compound 14, 4-(4-(naphthalen-2-yl)thiazol-2-yl)benzene-1,2-diol]	–
–	–	–	–	–	–	–	–	–	–	–	–	4 (≈ 9.52 µM)	4 (≈ 9.52 µM)	4 (≈ 9.52 µM)	4 (≈ 9.52 µM)	4 (≈ 9.52 µM)	4 (≈ 9.52 µM)	4 (≈ 9.52 µM)	4 (≈ 9.52 µM)	Oc1ccc(-c2csc(Nc3cc(C(F)(F)F)cc(C(F)(F)F)c3)n2)cc1O [Compound 58, 4-(2-((3,5-bis(trifluoromethyl)phenyl)amino)thiazol-4-yl)benzene-1,2-diol]	MIC [11]: 4 µg/mL (≈ 9.52 µM); MIC [12]: 4 µg/mL (≈ 9.52 µM); MIC ([9]; Table 2, HTM series): 4 µg/mL (≈ 9.52 µM); MIC [13]: 4 µg/mL (≈ 9.52 µM)
–	–	–	–	–	–	–	–	–	–	–	–	4 (≈ 12.6 µM)	8 (≈ 25.3 µM)	4 (≈ 12.6 µM)	4 (≈ 12.6 µM)	4 (≈ 12.6 µM)	4 (≈ 12.6 µM)	4 (≈ 12.6 µM)	4 (≈ 12.6 µM)	Cc1ccc(Nc2nc(-c3ccc(O)cc3)cs2)cc1Cl [Compound 67, 4-(2-((3-chloro-4-methylphenyl)amino)thiazol-4-yl)phenol]	MIC [11]: 4 µg/mL (≈ 12.6 µM); MIC [12]: 4 µg/mL (≈ 12.6 µM); MIC ([9]; Table 2, HTM series): 8 µg/mL (≈ 25.3 µM); MIC [13]: 8 µg/mL (≈ 25.3 µM)
